# Test results from patent US9049864B2, “Pyridazinone herbicidal compounds” (Syngenta Limited, priority 2012, dated 2015).
# Tests used:
# Assay in all cases: Post-emergence herbicidal glasshouse test, percentage damage to the plant
# Type in all cases: in vivo
# Details in all cases: post-emergence, 1000 g/ha, evaluated after 13 days
# [1] = test system: Alopecurus myosuroides (ALOMY)
# Experimental: (§1) Seeds of a variety of test species are sown in standard soil in pots:—Solanum nigrum (SOLNI), Amaranthus retoflexus (AMARE), Setaria faberi (SETFA), Alopecurus myosuroides (ALOMY), Echinochloa crus-galli (ECHCG), Ipomoea hederacea (IPOHE). After 8 days cultivation (post-emergence) under controlled conditions in a glasshouse (at 24/16° C., day/night; 14 hours light; 65% humidity), the plants are sprayed with an aqueous spray solution derived from the formulation of the technical active ingredient in acetone/water (50:50) solution containing 0.5% Tween 20 (polyoxyethelyene sorbitan monolaurate, CAS RN 9005-64-5). Compounds are applied at 1000 g/ha. The test plants are then grown in a glasshouse under controlled conditions in a glasshouse (at 24/16° C., day/night; 14 hours light; 65% humidity) and watered twice daily. After 13 days, the test is evaluated for the percentage damage caused to the plant. The biological activities are shown in the following table on a five point scale (5=80-100%; 4=60-79%; 3=40-59%; 2=20-39%; 1=0-19%). A comparative experiment is conducted to compare the biological efficacy of a compound of the present invention with those of WO 2011/045271. The test is performed as outlined above using the following compounds. Three different application rates are employed (250 g/ha, 500 g/ha and 1000 g/ha).
# [2] = test system: Amaranthus retoflexus (AMARE)
# Experimental: as §1
# [3] = test system: Echinochloa crus-galli (ECHCG)
# Experimental: as §1
# [4] = test system: Ipomoea hederacea (IPOHE)
# Experimental: as §1
# [5] = test system: Setaria faberi (SETFA)
# Experimental: as §1
# [6] = test system: Solanum nigrum (SOLNI)
# Experimental: as §1
Structure (SMILES),"POST Application ALOMY, percentage damage (five point scale) [1]","POST Application AMARE, percentage damage (five point scale) [2]","POST Application ECHCG, percentage damage (five point scale) [3]","POST Application IPOHE, percentage damage (five point scale) [4]","POST Application SETFA, percentage damage (five point scale) [5]","POST Application SOLNI, percentage damage (five point scale) [6]"
CC1=NN(C)C(=O)C(n2ccc3ccccc32)C1=O (stereo not drawn) [Compound 1.002],1 (1=0-19%),4 (4=60-79%),1 (1=0-19%),4 (4=60-79%),1 (1=0-19%),5 (5=80-100%)
Cc1nn(C)c(=O)c(-n2c(Cl)c(Cl)c3ccccc32)c1OC(=O)OCC(C)C [Compound 3.010],1 (1=0-19%),5 (5=80-100%),3 (3=40-59%),5 (5=80-100%),1 (1=0-19%),5 (5=80-100%)
CCCCC1=NN(C)C(=O)C(n2c(Cl)c(Cl)c3ccccc32)C1=O (stereo not drawn) [Compound 2.010],1 (1=0-19%),3 (3=40-59%),1 (1=0-19%),3 (3=40-59%),1 (1=0-19%),4 (4=60-79%)
Cc1nn(C)c(=O)c(-n2c(Cl)c(Cl)c3ccccc32)c1OC(=O)OC(C)C [Compound 3.011],1 (1=0-19%),5 (5=80-100%),4 (4=60-79%),5 (5=80-100%),2 (2=20-39%),5 (5=80-100%)
COC(=O)Oc1c(C)nn(C)c(=O)c1-n1nc(Cl)c2ccccc21 [Compound 3.005],1 (1=0-19%),4 (4=60-79%),3 (3=40-59%),5 (5=80-100%),1 (1=0-19%),5 (5=80-100%)
CC(C)CC1=NN(C)C(=O)C(n2c(Cl)c(Cl)c3ccccc32)C1=O (stereo not drawn) [Compound 2.009],1 (1=0-19%),1 (1=0-19%),1 (1=0-19%),2 (2=20-39%),1 (1=0-19%),4 (4=60-79%)
"CSC1=NN(C)C(=O)C(n2c(Cl)c(Cl)c3ccccc32)C1=O (stereo not drawn) [Compound 2.003, 4-(2,3-dichloroindol-1-yl)-2-methyl-6-methylsulfanyl-pyridazine-3,5-dione]",1 (1=0-19%),2 (2=20-39%),1 (1=0-19%),4 (4=60-79%),1 (1=0-19%),2 (2=20-39%)
Cc1nn(C)c(=O)c(-n2c(Cl)c(Cl)c3ccccc32)c1OC(=O)N1CCOCC1 [Compound 3.002],1 (1=0-19%),2 (2=20-39%),1 (1=0-19%),5 (5=80-100%),1 (1=0-19%),5 (5=80-100%)
CN1N=C(Br)C(=O)C(n2c(Cl)c(Cl)c3ccccc32)C1=O (stereo not drawn) [Compound 2.028],1 (1=0-19%),5 (5=80-100%),1 (1=0-19%),5 (5=80-100%),1 (1=0-19%),5 (5=80-100%)
